The values that follow are results of earlier work, collected in US20060083700A1, “Use of a novel phytonutrient rich bioactive concentrate (Ri-ActiveTM) for the prevention and treatment of cardiovascular disease, diabetes and other health disorders” (NaturRi LLC, priority 2004, published 2006).

The subject of this data set is hypercholesterolemic subjects. To be noted: 28 subjects, phases of 35 days.

With `CC[C@H](C)C(=O)O[C@H]1C[C@@H](C)C=C2C=C[C@H](C)[C@H](CC[C@@H]3C[C@@H](O)CC(=O)O3)[C@H]21` [lovastatin], the “reduction of LDL-C” value is given as 15% and the “reduction of serum total cholesterol” value is 13%.
